{
  "source": "patent US11198677B2",
  "about": "“Deoxyuridine triphosphatase inhibitors containing amino sulfonyl linkage” (University of Southern California, priority 2015, dated 2021)",
  "key": {"[1]": {"tested_on": "colorectal (HCT116 and SW620) cell line models", "assay": "MTS growth inhibition assay", "assay_type": "cell-based", "settings": "increasing concentrations between 0 and 100 μmol/L; both colorectal cancer cell lines evaluated", "experimental": "The Cell Titer AQueous MTS assay (Promega) is carried out according to the manufacturers guidelines. […] The combination effect is determined by the combination index (CI) method utilizing Calcusyn software (Biosoft, Ferguson, Mo.). Fraction affected (FA) is calculated from the percent growth inhibition: FA=[…]. CI values <1, synergism; 1-1.2, additive and >1.2, antagonism.\nTest compounds are evaluated for their antitumor activity in colorectal cancer cells using the MTS growth inhibition assay. HCT116 and SW620 cells are exposed to increasing concentrations of each agent for 72 hours and growth inhibition is directly compared to vehicle-treated controls. The NSCLC cell lines A549 and H1299 are exposed to increasing concentrations of each agent for 72 hours and growth inhibition is directly compared to vehicle-treated controls.\nMTS growth inhibition assays are performed to evaluate the effectiveness of the test compounds alone and in combination with the fluoropyrimidine thymidylate synthase (TS) inhibitor 5-fluorouracil (5-FU) at inhibiting the growth of colorectal (HCT116 and SW620) cell line models. […] Simultaneous treatment with increasing concentrations of 5-FU and a test compound at fixed concentrations of 25 μmol/L is determined."}, "[2]": {"tested_on": "colorectal (HCT116), breast (MCF-7) and non-small cell lung (H1299, A549, H358 and H460) cell line models", "assay": "Colony forming assay", "assay_type": "cell-based", "settings": "increasing concentrations between 0.5 and 2.5 μmol/L; all cell lines evaluated", "experimental": "Colony forming assay showing the ability of colon (SW620, HCT116), non-small cell lung (A549, H460, H1299 and H358) and breast (MCF7) cancer cells to survive and proliferate following transient 24 hour exposure to test compounds, FUdR and combinations are determined. Specifically, cells are seeded at densities between 50 and 100 cells/well in 24-well plates. Twenty-four hours later, cells are treated with increasing concentrations of a test compound, a fixed dose of FUdR and combinations of these. After 24 hours, drug is removed, cells are rinsed and allowed to outgrow for 10-14 days. At the conclusion of the outgrowth, cells are fixed in 60% ice cold methanol and stained with 0.1% crystal violet, scanned and counted. Data is presented as percentage of untreated controls (mean±SD). Fraction affected and combination indexes are calculated according to the method of Chou and Talalay where <1 is indicative of a synergistic drug interaction.\nColony forming assays are performed to evaluate the effectiveness of test compounds alone and in combination with the fluoropyrimidine thymidylate synthase (TS) inhibitor fluorodeoxyuridine (FUdR) at reducing cancer cell viability in colorectal (HCT116), breast (MCF-7) and non-small cell lung (H1299, A549, H358 and H460) cell line models. […]"}},
  "data": [
    {"compound": "O=c1[nH]cc(F)c(=O)[nH]1", "note": "[Compound 5-FU, 5-fluorouracil]", "values": [
      {"measurement": "growth inhibition", "setting": "[1]", "value": "dose-dependent increases in growth inhibition"}
    ]},
    {"compound": "O=c1[nH]c(=O)n([C@H]2C[C@H](O)[C@@H](CO)O2)cc1F", "note": "[FUdR, fluorodeoxyuridine]", "values": [
      {"measurement": "colonies formed", "setting": "[2]", "value": "dose-dependent decreases in colonies formed"}
    ]}
  ]
}
